Measurements: ChEMBL document CHEMBL1141634, “Cathepsin B inhibitory activities of phthalates isolated from a marine Pseudomonas strain” (Bioorg Med Chem Lett, 2008)

Tests used:
Cathepsin B [1] = target: Cathepsin B (Homo sapiens, UniProt P07858); assay: Inhibition of cathepsin B
B16-F10 = assay: Cytotoxicity against mouse B16F10 cells by MTT assay; assay type: functional
Cathepsin B [2] = target: Cathepsin B (Mus musculus, UniProt P10605); assay: Inhibition of cathepsin B in mouse B16F10 cells; assay type: cell-based, B16-F10
Sequence of Cathepsin B (Mus musculus, UniProt P10605) (P10605 whole entry): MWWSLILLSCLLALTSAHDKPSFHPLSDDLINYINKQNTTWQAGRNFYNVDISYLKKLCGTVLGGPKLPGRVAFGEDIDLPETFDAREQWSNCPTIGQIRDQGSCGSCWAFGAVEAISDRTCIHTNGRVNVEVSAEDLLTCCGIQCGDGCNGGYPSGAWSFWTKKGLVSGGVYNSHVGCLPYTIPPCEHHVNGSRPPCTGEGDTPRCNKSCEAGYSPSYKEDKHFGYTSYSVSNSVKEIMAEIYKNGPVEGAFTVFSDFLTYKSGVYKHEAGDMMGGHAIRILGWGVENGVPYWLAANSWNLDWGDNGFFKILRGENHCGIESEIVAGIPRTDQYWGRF

Structure (SMILES) | IC50 (Cathepsin B [1]) [µM] | Activity (B16-F10) [%] | IC50 (Cathepsin B [2]) [µM]
CCCCOC(=O)c1ccccc1C(=O)OCCCC [DIBUTYL PHTHALATE] | 420 | 9.45 | 230
CCCC[C@@H](CC)COC(=O)c1ccccc1C(=O)OC[C@@H](CC)CCCC [BIS(2-ETHYLHEXYL)PHTHALATE] | 380 | 7.34 | 140
